Laboratory results: patent US7122533B2, “Cosalane compounds and methods for their use” (The United States of America as represented by the …, priority 1999, dated 2006)

Assays:
Assay type in all cases: cell-based
human CCR1 [1] = target: T1, human CCR1 (Homo sapiens, UniProt P32246); test: MIP1β-induced migration of CCR1 transfectants; conditions: compound at 1 μM, data not shown
T1 construct: expressed in transfected cells; host or cells: HEK-293
T1 sequence (P32246 1-355): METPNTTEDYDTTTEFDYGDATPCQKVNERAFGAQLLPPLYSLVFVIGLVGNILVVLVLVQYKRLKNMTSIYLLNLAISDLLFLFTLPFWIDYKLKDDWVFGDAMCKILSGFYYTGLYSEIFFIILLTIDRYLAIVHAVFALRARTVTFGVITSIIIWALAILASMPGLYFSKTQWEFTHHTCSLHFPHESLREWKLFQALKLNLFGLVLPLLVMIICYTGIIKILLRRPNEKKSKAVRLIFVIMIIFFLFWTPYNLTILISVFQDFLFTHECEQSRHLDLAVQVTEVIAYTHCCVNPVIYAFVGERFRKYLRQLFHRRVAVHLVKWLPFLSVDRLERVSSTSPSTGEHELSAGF
Method: (§1) Human embryonic kidney cells 293 (HEK-293) transfected to express human CCR1, CCR3, or CCR5 receptors were cultured in Dulbecco's Modified Eagles Medium (DMEM, Biowhiftaker, Walkersville, Md.) containing 10% Fetal Bovine Serum (FBS, Hyclone, Logan, Utah), 2 mM glutamine and 100 U/ml penicillin and streptomycin (Quality Biologicals, Gaithersburg, Md.). Peripheral blood mononuclear cells were isolated from fresh normal donor apheresis packs by centrifugation over Ficoll. Monocytes were enriched by 85–95% using percoll fractionation (Pharmacia, Piscataway, N.J.).
(§2) The number of cells migrating to the chemokine mixtures was determined for binding media alone, and chemokine treated and untreated cells. HEK-293 cells transfected to express human CCR1, CCR3 or CCR5 receptors were resuspended in binding media at 7.5×10^5 cells/ml. Ten μm polyvinyl-free polycarbonate membranes (Neuro Probe) were treated with 47 ug/ml rat tail collagen type 1 (Collaborative Biomedical Products, Bedford, Md.) in RPMI-1640 overnight, dried and placed over the chemoattractants. The assembled chemotaxis chambers were incubated in a humidified CO2 incubator for 5.5–6 hours. After the incubation, the membranes were removed from the chemotaxis chamber assembly followed by gently removing cells from the upper side of the membrane. The stained and dried membrane was mounted and the cells on the underside of the membrane were counted at 200× magnification. The results are reported as the average number of cells per high powered field at a given chemokine concentration±standard deviation.
(§3) The ability of compound 3 to inhibit RANTES-induced migration of human embryonic kidney (HEK) cells transfected to express individual chemokine receptors was initially tested. Although the cosalane analog 3 (1 μM) had no effect on RANTES-induced migration of CCR5 transfectants, it inhibited 50% of RANTES-induced CCR1 transfectant migration (FIG. 2). In contrast, the MIP1α- and MIP1β-induced migration of CCR1 transfectants was not inhibited by compounds 1, 2 or 3 when tested at concentrations of 1 μM (data not shown).

human CCR1 [2] = target: T1, human CCR1; test: RANTES-induced CCR1/HEK-293 transfectant migration
Method: as §1, with “Ficoll.” for “Ficoll. Monocytes were enriched by 85–95% using percoll fractionation (Pharmacia, Piscataway, N.J.).”
as §2, with “magnification.” for “magnification. The results are reported as the average number of cells per high powered field at a given chemokine concentration±standard deviation.”

human CCR1 [3] = target: T1, human CCR1; test: MIP1α-induced migration of CCR1 transfectants; conditions: compound at 1 μM, data not shown
Method: as §1, §2, §3

[4] = system: human monocytes (SDF-1α-induced migration; CXCR4 ligand); test: SDF-1α-induced monocyte/lymphocyte migration; conditions: compound at 1 μM, FIG. 1
Method: (§4) Monocyte chemotaxis was performed as previously described [Wang (1993) J. Immunol. 150:3022–3029]. Briefly, monocytes were resuspended in binding media (RPMI-1640 media containing 1% BSA, 25 mM HEPES, pH 8.0) at 1–2×10^6 cells/ml. Chemokines, diluted in binding media, were mixed with cosalane or the indicated cosalane analog and placed in the lower wells of a micro-chemotaxis chamber (Neuro Probe, Cabin John, Md.). Five micrometer polyvinyl-free polycarbonate membranes were placed over the chemokine mixtures. After the micro-chemotaxis chamber was assembled, 50 μl of cells were placed in the upper wells. The filled chemotaxis chambers were incubated in a humidified CO2 incubator for 90 minutes.
(§5) After incubating, the membranes were removed from the chemotaxis chamber assembly followed by gently removing the cells from the upper side of the membrane. Then cells on the lower side of the membrane were stained.
The number of cells migrating to the chemokine mixtures was determined for binding media alone, and chemokine treated and untreated cells. […] The stained and dried membrane was mounted and the cells on the underside of the membrane were counted at 200× magnification. […]
The ability of the cosalane analogs 3 and 4 to block SDF-1α (a CXCR4 ligand) and RANTES (a CCR1, CCR3, and CCR5 ligand) induced migration of human monocytes or lymphocytes was initially evaluated. […]

[5] = system: human monocytes (MIP1-β-induced migration); test: MIP1-β-induced monocyte migration; conditions: compound at 1 μM, chemokine at 2.5 ng/ml, data not shown
Method: as §4, with “Chemokines, diluted in binding media, were mixed with cosalane or the indicated cosalane analog and placed in the lower wells of a micro-chemotaxis chamber (Neuro Probe, Cabin John, Md.).” left out
as §5
as §2, with “magnification.” for “magnification. The results are reported as the average number of cells per high powered field at a given chemokine concentration±standard deviation.”
(§6) It is noted that both MIP1-α and MIP1-β are ligands for CCR1, CCR5, and D6 (8).

[6] = system: human monocytes (acetylated RANTES-induced migration); test: monocyte migration induced by acetylated (modified) RANTES; conditions: 10 μM compound; acetylated RANTES 50–1000 ng/mL, FIG. 6
Method: as §4, §5
as §2, with “deviation. […]” for “deviation.”

[7] = system: human monocytes (RANTES-induced migration); test: RANTES-induced monocyte migration (micro-chemotaxis chamber)
Method: as §1, §4, §5, §2

[8] = system: MCP-4/CCR2-mediated monocyte migration; test: MCP-4-induced human monocyte migration; conditions: FIG. 3
Method: as §4, §5, §2
Although MCP-4 is known to bind to CCR2 and CCR3, fresh primary human monocytes only express high levels of CCR2.

[9] = system: human monocytes (MIP1-α-induced migration); test: MIP1-α-induced monocyte migration; conditions: compound at 1 μM, chemokine at 2.5 ng/ml, data not shown
Method: as §4, with “Chemokines, diluted in binding media, were mixed with cosalane or the indicated cosalane analog and placed in the lower wells of a micro-chemotaxis chamber (Neuro Probe, Cabin John, Md.).” left out
as §5
as §2, with “magnification.” for “magnification. The results are reported as the average number of cells per high powered field at a given chemokine concentration±standard deviation.”
as §6

human CCR5 = target: T2, human CCR5 (Homo sapiens, UniProt P51681); test: RANTES-induced CCR5/HEK-293 transfectant migration; conditions: compound at 1 μM, FIG. 2
T2 construct: expressed in transfected cells; host or cells: HEK-293
Method: as §1
as §2, with “After the incubation, the membranes were removed from the chemotaxis chamber assembly followed by gently removing cells from the upper side of the membrane.” left out, “The results are reported as the average number of cells per high powered field at a given chemokine concentration±standard deviation.” left out

T2 sequence (P51681 whole entry): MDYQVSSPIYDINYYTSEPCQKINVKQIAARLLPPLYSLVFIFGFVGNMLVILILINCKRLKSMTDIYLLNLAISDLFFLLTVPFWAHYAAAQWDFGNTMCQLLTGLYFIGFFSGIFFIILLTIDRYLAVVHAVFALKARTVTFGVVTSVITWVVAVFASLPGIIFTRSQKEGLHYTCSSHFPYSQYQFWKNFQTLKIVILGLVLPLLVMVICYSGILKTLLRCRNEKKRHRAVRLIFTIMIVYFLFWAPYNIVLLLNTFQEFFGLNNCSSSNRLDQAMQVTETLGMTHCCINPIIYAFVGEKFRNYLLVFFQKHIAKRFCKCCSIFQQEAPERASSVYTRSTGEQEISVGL

In the case of `CC(C)CCCC(C)[C@H]1CCC2C3CCC4C[C@@H](CCC=C(c5cc(Cl)c(OCc6ccccc6C(=O)O)c(C(=O)O)c5)c5cc(Cl)c(OCc6ccccc6C(=O)O)c(C(=O)O)c5)CC[C@]4(C)C3CC[C@@]21C` (stereo partly shown) [Compound 3], the “inhibition of MIP1β-induced migration of CCR1 transfectants” value (human CCR1 [1]) is reported as “not inhibited”, the inhibition at 1 µM (human CCR1 [2]; HEK293, compound at 1 μM, FIG. 2) is reported as 50% and the IC50 (human CCR1 [2]; ≦ 5% standard error, NA = not active, read-out: IC50 (μM) RANTES-Induced CCRI/HEK Migration) is reported as 0.26 µM. For the same compound, the “inhibition of MIP1α-induced migration of CCR1 transfectants” value (human CCR1 [3]) was “not inhibited”, the “inhibition of SDF-1α-induced monocyte migration” value [4] was “effective inhibitor” and the “inhibition of MIP1-β-induced monocyte migration” value [5] was “neither MiP1-α- nor MIP1-β-induced monocyte migration was inhibited”. The “inhibition of the activity of modified (acetylated) RANTES to attract monocytes” value [6] was “not inhibited”, the IC50 ([7]; Homo sapiens, Monocyte, ≦ 5% standard error, NA = not active) was 3.9 µM and the “inhibition of RANTES-induced monocyte migration” value ([7]; compound at 1 μM, FIG. 1) was “effective inhibitor”. For the same compound, the “activity as inhibitors of RANTES-induced migration” value ([7]; discussion of Table 1) was “retain activity”, the “block of MCP-4/CCR2-mediated monocyte migration” value [8] was “block” and the “inhibition of MIP1-α-induced monocyte migration” value [9] was “neither MiP1-α- nor MIP1-β-induced monocyte migration was inhibited”. For the same compound, the “effect on RANTES-induced migration of CCR5 transfectants” value (human CCR5) was “no effect”.
